Test system: 186277-243-T-J2-PDC complex spheroid viability
Assay: Anticancer human tumor 186277-243-T-J2-PDC patient-derived colon adenocarcinoma cell line growth inhibition
Conditions: for IC50: curve of first compound; for viability, T/C: stronger effect = lower value; active means viability on the fitted dose curve at most 10% of control; inactive means the rest
Outline: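 Multicellular complex spheroids of tumor cells with human endothelial cells (HUVEC) and mesenchymal stem cells; the LSD1 inhibitor iadademstat was combined with standard-of-care or investigational agents. Top concentration at or near clinical Cmax, half-log dilutions; final DMSO ≤0.25%.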

[1] = second compound 0.1 µM, first compound 0.00949 µM
[2] = second compound 0.1 µM, first compound 0.03 µM
[3] = second compound 0.1 µM, first compound 0.0949 µM
[4] = second compound 0.1 µM, first compound 0.3 µM
[5] = second compound 0.1 µM, first compound 0.949 µM
[6] = second compound 0.1 µM, first compound 3 µM
[7] = second compound 0.316 µM, first compound 0.00949 µM
[8] = second compound 0.316 µM, first compound 0.03 µM
[9] = second compound 0.316 µM, first compound 0.0949 µM
[10] = second compound 0.316 µM, first compound 0.3 µM
[11] = second compound 0.316 µM, first compound 0.949 µM
[12] = second compound 0.316 µM, first compound 3 µM
[13] = second compound 1 µM, first compound 0.00949 µM
[14] = second compound 1 µM, first compound 0.03 µM
[15] = second compound 1 µM, first compound 0.0949 µM
[16] = second compound 1 µM, first compound 0.3 µM
[17] = second compound 1 µM, first compound 0.949 µM
[18] = second compound 1 µM, first compound 3 µM
[19] = second compound 3.16 µM, first compound 0.00949 µM
[20] = second compound 3.16 µM, first compound 0.03 µM
[21] = second compound 3.16 µM, first compound 0.0949 µM
[22] = second compound 3.16 µM, first compound 0.3 µM
[23] = second compound 3.16 µM, first compound 0.949 µM
[24] = second compound 3.16 µM, first compound 3 µM
[25] = second compound 10 µM, first compound 0.00949 µM
[26] = second compound 10 µM, first compound 0.03 µM
[27] = second compound 10 µM, first compound 0.0949 µM
[28] = second compound 10 µM, first compound 0.3 µM
[29] = second compound 10 µM, first compound 0.949 µM
[30] = second compound 10 µM, first compound 3 µM
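Further: 7 day exposure to compounds.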
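Wherever viability, T/C is given: 100% = DMSO vehicle control viability.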

NS(=O)(=O)OCC1CC(n2ccc3c(NC4CCc5ccccc54)ncnc32)CC1O (stereo not given) + NC1CC1c1ccc(-c2cccc(O)c2)cc1
319 nM: IC50 (second compound 1 µM)
265 nM: IC50 (second compound 10 µM)
active: viability, T/C [6] 4.48% | viability, T/C [12] 3.87% | viability, T/C [18] 4.26% | viability, T/C [24] 3.82% | viability, T/C [30] 3.25%
397 nM: IC50 (second compound 3.16 µM)
303 nM: IC50 (second compound 0.316 µM)
inactive: viability, T/C [1] 98.8% | viability, T/C [2] 89.8% | viability, T/C [3] 76.8% | viability, T/C [4] 47.3% | viability, T/C [5] 11% | viability, T/C [7] 104% | viability, T/C [8] 101% | viability, T/C [9] 82.3% | viability, T/C [10] 53.9% | viability, T/C [11] 11.7% | viability, T/C [13] 116% | viability, T/C [14] 96.8% | viability, T/C [15] 85.1% | viability, T/C [16] 55.9% | viability, T/C [17] 14.4% | viability, T/C [19] 116% | viability, T/C [20] 98.2% | viability, T/C [21] 84.4% | viability, T/C [22] 69% | viability, T/C [23] 12.8% | viability, T/C [25] 107% | viability, T/C [26] 90.6% | viability, T/C [27] 73.4% | viability, T/C [28] 52.8% | viability, T/C [29] 14%
249 nM: IC50 (second compound 0.1 µM)

Nc1ccccc1NC(=O)c1ccc(CNC(=O)OCc2cccnc2)cc1 + NC1CC1c1ccc(-c2cccc(O)c2)cc1
inactive: viability, T/C [1] 93.8% | viability, T/C [2] 104% | viability, T/C [3] 91.6% | viability, T/C [4] 98.6% | viability, T/C [5] 18.1% | viability, T/C [7] 99.6% | viability, T/C [8] 99.6% | viability, T/C [9] 108% | viability, T/C [10] 93.5% | viability, T/C [11] 15.4% | viability, T/C [13] 98.8% | viability, T/C [14] 94.1% | viability, T/C [15] 98.8% | viability, T/C [16] 94.7% | viability, T/C [17] 17.7% | viability, T/C [19] 99.8% | viability, T/C [20] 110% | viability, T/C [21] 109% | viability, T/C [22] 87.9% | viability, T/C [23] 18.5% | viability, T/C [25] 96.2% | viability, T/C [26] 97.3% | viability, T/C [27] 104% | viability, T/C [28] 83.3% | viability, T/C [29] 11.8%
585 nM: IC50 (second compound 1 µM)
active: viability, T/C [6] 1.51% | viability, T/C [12] 0.84% | viability, T/C [18] 0.9% | viability, T/C [24] 1.44% | viability, T/C [30] 1.02%
596 nM: IC50 (second compound 0.1 µM)
514 nM: IC50 (second compound 10 µM)
563 nM: IC50 (second compound 3.16 µM)
570 nM: IC50 (second compound 0.316 µM)

O=C(C=Cc1cccc(S(=O)(=O)Nc2ccccc2)c1)NO + NC1CC1c1ccc(-c2cccc(O)c2)cc1
238 nM: IC50 (second compound 10 µM)
inactive: viability, T/C [1] 104% | viability, T/C [2] 103% | viability, T/C [3] 94% | viability, T/C [4] 23.5% | viability, T/C [5] 3.89% | viability, T/C [6] 91.1% | viability, T/C [7] 106% | viability, T/C [8] 113% | viability, T/C [9] 90.8% | viability, T/C [10] 25.9% | viability, T/C [11] 3.14% | viability, T/C [12] 89.5% | viability, T/C [13] 116% | viability, T/C [14] 101% | viability, T/C [15] 109% | viability, T/C [16] 23.3% | viability, T/C [17] 3.06% | viability, T/C [18] 98.7% | viability, T/C [19] 118% | viability, T/C [20] 106% | viability, T/C [21] 111% | viability, T/C [22] 26% | viability, T/C [23] 3.1% | viability, T/C [24] 101% | viability, T/C [25] 99.3% | viability, T/C [26] 96.8% | viability, T/C [27] 87.5% | viability, T/C [28] 21.8% | viability, T/C [29] 1.11% | viability, T/C [30] 99%
260 nM: IC50 (second compound 1 µM)
240 nM: IC50 (second compound 0.1 µM)
237 nM: IC50 (second compound 0.316 µM)
268 nM: IC50 (second compound 3.16 µM)
